According to ChEMBL document CHEMBL4715764, “ArgTX-636, a polyamine isolated from spider venom: A novel class of melanogenesis inhibitors” (Bioorg Med Chem, 2016):
Each block holds one compound with its values, some of them ahead of it. Activity calls are given as the source filed them. The rule behind the calls is not given here.

Experiments:
B16-F10 [1] = test: Reduction in alpha-MSH-induced tyrosinase expression in mouse B16-F10 cells at 0.041 uM incubated for 48 hrs by Western blot analysis; type: functional, cell-based
B16-F10 [2] = test: Reduction in alpha-MSH-induced TRP-1 expression in mouse B16-F10 cells at 0.041 uM incubated for 48 hrs by Western blot analysis; type: functional, cell-based
B16-F10 [3] = test: Cytotoxicity against mouse B16-F10 cells assessed as reduction in cell viability at 42.1 uM incubated for 6 hrs by MTT assay; type: cell-based; settings: b16-f10, 6 h
B16-F10 [4] = test: Inhibition of melanin production in mouse B16-F10 cells incubated for 48 hrs; type: functional, cell-based; settings: dose 0-0.0421 µM
[5] = biological target: T1, Mushroom tyrosinase (Agaricus bisporus) (UniProt O42713+Q00024+C7FF04+C7FF05); test: (§1) Inhibition of mushroom tyrosinase using DHICA as substrate measured for 15 mins by UV-vis spectrophotometry
Mushroom tyrosinase [6] = biological target: T2, Mushroom tyrosinase (Agaricus bisporus, UniProt O42713+Q00024+C7FF04+C7FF05); test: as §1
[7] = biological target: T1, Mushroom tyrosinase (Agaricus bisporus); test: (§2) Inhibition of mushroom tyrosinase using L-DOPA as substrate measured for 15 mins by UV-vis spectrophotometry
Mushroom tyrosinase [8] = biological target: T2, Mushroom tyrosinase; test: as §2
Mushroom tyrosinase [9] = biological target: T2, Mushroom tyrosinase; test: Mixed type inhibition of mushroom tyrosinase using L-DOPA as substrate assessed as inhibitory constant measured for 15 mins by UV-vis spectrophotometry based Line-weaver Burk plot analysis
[10] = biological target: T3, Tyrosinase (Mus musculus) (UniProt P11344); test: Inhibition of tyrosinase in mouse B16-F10 cells at 0.421 uM using L-DOPA as substrate incubated for 30 mins followed by substrate addition and measured after 40 mins; type: cell-based; settings: time 70.0 min
T3 sequence (whole entry): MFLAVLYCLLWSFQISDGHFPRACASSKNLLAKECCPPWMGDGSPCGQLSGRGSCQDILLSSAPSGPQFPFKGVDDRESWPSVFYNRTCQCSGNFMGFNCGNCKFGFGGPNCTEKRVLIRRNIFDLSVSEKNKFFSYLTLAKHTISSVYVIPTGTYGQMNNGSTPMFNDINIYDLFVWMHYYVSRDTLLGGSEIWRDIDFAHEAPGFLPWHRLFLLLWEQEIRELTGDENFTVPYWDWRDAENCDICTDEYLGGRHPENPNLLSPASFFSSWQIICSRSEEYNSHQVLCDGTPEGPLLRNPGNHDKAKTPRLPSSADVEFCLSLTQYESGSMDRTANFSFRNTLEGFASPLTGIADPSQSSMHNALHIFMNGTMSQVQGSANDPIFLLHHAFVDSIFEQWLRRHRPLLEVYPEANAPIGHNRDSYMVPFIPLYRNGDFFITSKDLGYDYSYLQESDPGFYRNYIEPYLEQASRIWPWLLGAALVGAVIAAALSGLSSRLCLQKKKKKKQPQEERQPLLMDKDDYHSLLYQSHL

M4Beu cell line = test: Cytotoxicity against human M4Be cells assessed as reduction in cell viability at 42.1 uM incubated for 6 hrs by MTT assay; type: cell-based
Mushroom tyrosinase [11] = biological target: T2, Mushroom tyrosinase; test: Mixed type inhibition of mushroom tyrosinase using L-DOPA as substrate assessed as enzyme-substrate complex constant measured for 15 mins by UV-vis spectrophotometry based Line-weaver Burk plot analysis
Mushroom tyrosinase [12] = biological target: T2, Mushroom tyrosinase
Description: Inhibition of diphenolase activity of mushroom tyrosinase using L-DOPA substrate

Structure (SMILES): N=C(N)NCCC[C@H](N)C(=O)NCCCNCCCNCCCCCNC(=O)[C@H](CC(N)=O)NC(=O)Cc1ccc(O)cc1O
- inhibition (B16-F10 [1]): inactive
- inhibition (B16-F10 [2]): Active
- Activity (B16-F10 [3]): Non-Toxic
- inhibition (B16-F10 [4]): Dose-dependent effect
- inhibition [5]: Dose-dependent effect
- IC50 (Mushroom tyrosinase [6]): 48.22 µM
- inhibition [7]: Dose-dependent effect
- IC50 (Mushroom tyrosinase [8]): 8.34 µM
- Ki (Mushroom tyrosinase [9]): 10.77 µM
- inhibition [10]: Active
- Activity (M4Beu cell line): Non-Toxic
- Ki (Mushroom tyrosinase [11]): 20.36 µM

- IC50 (Mushroom tyrosinase [12]): 0.01861 mM
Structure (SMILES): CC1(C)C=Cc2c(cc3c(c2O)C(=O)CC(c2ccc(O)cc2O)O3)O1 (configuration not stated) [DALENIN]

- IC50 (Mushroom tyrosinase [12]): 3.45 mM
Structure (SMILES): O=C(O)/C=C/c1ccc(Cn2ccnc2)cc1 [OZAGREL]

- IC50 (Mushroom tyrosinase [12]): 0.1 mM
Structure (SMILES): OC1COC(O)C(O)C1O (racemic)

- IC50 (Mushroom tyrosinase [12]): 0.042 mM
Structure (SMILES): S=C1NCC(c2ccccc2)O1 (configuration not stated)

- IC50 (Mushroom tyrosinase [12]): 9 mM
Structure (SMILES): CC1(C)S[C@@H]2[C@H](NC(=O)[C@H](N)c3ccc(O)cc3)C(=O)N2[C@H]1C(=O)O [AMOXICILLIN]
